Series [1] in a line: Parallel Artificial Membrane Permeability Assay (PAMPA). The class given is in vitro ADME. The settings on record: porcine polar brain lipids, 0.5 mM, 16 h, n=3. As to the method:
In this experiment, the inventors included highly permeable verapamil and lowly permeable theophylline as controls.
Permeability studies were performed as previously described by Sugano, et al., 2011. A 96-well microplate (acceptor compartment) was filled with PBS containing 5% DMSO. A hydrophobic filter plate (donor compartment) was placed atop the buffer-filled plate and the filter surface was impregnated with 5 μL solution of porcine polar brain lipids (Avanti Lipids) in dodecane (1% w/v). 150 μL of the test compounds dissolved in PBS containing 5% DMSO (compound concentration 0.5 mM) was added to the donor compartment and covered. The only barrier between the two compartments was the artificial BBB membrane containing the porcine polar brain lipids. The whole system was incubated for several hours.

In series [2] the test system is normally myelinated optic nerves from control mice (shi^+/−, shi^+/+). The series can be described thus: Compound action potential (CAP) of dissected normally myelinated optic nerve. The class given is cell-based, mouse. As to the method: (§1) In order to determine if the drugs could also be effective in enhancing compound action potentials (CAP), the effects of these compounds on the CAP of hypomyelinated optic nerves from Shiverer mice (shi^−/−) and control mice (shi^+/−, shi^+/+) were tested. Shiverer mice lack compact myelin in the CNS due to a null mutation of the myelin basic protein gene (MBP).
optic nerves were dissected from 12-16 week old Shiverer (shi^−/−) and control mice (shi^+/− and shi^+/+). Mice were euthanized by CO2 overdose and the optic nerves were quickly dissected between the eyeball and the optic chiasm. […]
compound action potentials (CAP) from hypomyelinated nerves (Shiverer mice, shi^−/−) and myelinated nerves (litermate controls, shi^+/− and shi^+/+) were recorded using suction electrodes as described by Stys et al. Briefly, the dissected optic nerve was placed inside a chamber containing oxygenated (5% CO2, 95% O2) aCSF (300 μL) between two suction electrodes (stimulus and recording electrodes) forming a tight seal on each end. […] The study was conducted at 22.2±1.3° C. to allow for slower conduction and the temperature was monitored throughout the experiment. […] The half-maximal effective concentration (EC50) for each drug was calculated by plotting the final over initial amplitude vs. concentration and fitted to the Hill equation using Origin.

For series [3], the system named is hypomyelinated optic nerves from Shiverer mice (shi^−/−). As to the kind of experiment: Compound action potential (CAP) of dissected hypomyelinated optic nerve. The class given is cell-based, mouse. As to the method: as §1
optic nerves were dissected from 12-16 week old Shiverer (shi^−/−) and control mice (shi^+/− and shi^+/+). Mice were euthanized by CO2 overdose and the optic nerves were quickly dissected between the eyeball and the optic chiasm. The nerves were incubated for 30 min at 37° C. in oxygenated (95% O2, 5% CO2) aCSF solution (126 mM NaCl, 3 mM KCl, 2 mM MgSO4, 26 mM NaHCO3, 2 mMCaCl2, 10 mM dextrose, pH 7.5) before the experiment.
compound action potentials (CAP) from hypomyelinated nerves (Shiverer mice, shi^−/−) and myelinated nerves (litermate controls, shi^+/− and shi^+/+) were recorded using suction electrodes as described by Stys et al. Briefly, the dissected optic nerve was placed inside a chamber containing oxygenated (5% CO2, 95% O2) aCSF (300 μL) between two suction electrodes (stimulus and recording electrodes) forming a tight seal on each end. Two additional electrodes were placed in the bath for reference. A supramaximal pulse (250 mV, 20 μs) was applied at the stimulating end of the nerve. The resulting CAP was amplified from the recording electrode using a high impedance low-noise amplifier (EG&G Princeton Applied Research Corporation) and filtered and sampled at 10-100 kHz. […] After each measurement the chamber was washed for 5 min (flow 1 mL/min) with oxygenated aCSF. The study was conducted at 22.2±1.3° C. to allow for slower conduction and the temperature was monitored throughout the experiment. CAP recordings were acquired with a SBC6711 board (Innovative Integration) controlled by in-house written software. Analysis of the traces was done using an in-house software. The half-maximal effective concentration (EC50) for each drug was calculated by plotting the final over initial amplitude vs. concentration and fitted to the Hill equation using Origin.
(§2) The Hill equation used to fit the data from the voltage-clamp and the optic nerve experiments was as follows: y=y0+(yf−y0)*x^n/(k^n+x^n); where n refers to the Hill coefficient (typically 1±0.1) and k refers to EC50 or IC50. y0 and yf refers to the origin and final ordinate values and were fixed at 1±0.1 or 0±0.1 depending on the experiment. EC50=10^<log EC50>; where <log EC50>=average of log EC50 values from all experiments with the same drug. 95% C.I.=[Upper Limit . . . Lower Limit]; where U.L.=10^(log EC50+s.d.) and L.L.=10^(log EC50−s.d.). The half-life (t1/2) in the stability and pharmacokinetic experiments was calculated by fitting the data to the equation Ct=C0*exp(−k*t) where C0=initial concentration, Ct=concentration at time t, and k=ln 2/t1/2. Student t-test was used to compare results and P<0.05 was considered significant.

Series [4] can be described thus: Brain distribution of [^3H] 4-AP in LPC-injected mice by autoradiography. It counts as in vivo. The settings on record: [^3H] 4-AP 0.4 μCi/g i.v., 20-60 min. How it is done:
The inventors conducted an experiment to evaluate if 4-AP selectively localizes in demyelinated (injured) areas. […] The lesions were caused by prior injection of lysophosphatidylcholine (LPC), also called lysolecithin, into their brains, which causes focal demyelination at the site of injection. Two days after LPC injection, at the peak of demyelination, the animals were injected with [^3H] […] Twenty to sixty minutes after injection of [^3H] 4-AP the mice were euthanized and their brains were dissected and frozen. The frozen brains were then cut into 20 μm sections using a cryostat and the sections mounted in slides. The slides were then exposed to radiation sensitive X-ray film at −80° C. in the dark for forty days to capture the distribution of radioactivity coming from [^3H] 4-AP throughout the brain.
After autoradiographic exposure, the slides were stained for myelin basic protein (MBP) using immunohistochemistry and imaged using fluorescent microscopy to determine the areas of demyelination.

The subject of the next series is C57Bl/6J mice. The series can be described thus: In vivo effects (tremor, seizures) after intraperitoneal injection. Set-up: species or system mouse. The settings on record: i.p.; for Effect: N = 5. As to the method: A consequence of excessive K^+ channel blockage is the advent of seizures. 4-AP is known to cause seizures in mice at high doses.
At high doses, 4-AP causes tremors, muscle spasms and seizures.
10-week-old female C57Bl/6J mice were given an intraperitoneal injection of the drug under investigation and monitored continuously for 4 h. After 4 h no signs of drug effects could be observed. At least 72 h passed between injections to the same mice.

Series [5] can be described thus: Pharmacokinetic study after single intravenous dose. The class given is in vivo, mice (CD-1). The settings on record: female, CD-1, mouse, mice, i.v. 0.75 mg/kg. As to the method: 39 mice (CD-1, 6-weeks old, female) were used in the study. […] The drugs were dissolved in PBS and administered via tail-vein injection to achieve a dose of 0.75 mg/kg of body weight. At specific times post injection (10 min, 30 min, 1 h, 2 h, 4 h and 24 h) blood and brain samples were collected. Blood samples were transferred into tubes containing 5% EDTA, stored on ice, and centrifuged (4° C., 1000 rpm, 15 min). Plasma (upper phase) was transferred to a new tube and stored at −80° C. for further analysis. Brain tissue samples were collected after intracardial perfusion of the mouse. Brain tissue samples were stored at −80° C. for further analysis. Drug quantification in plasma: Briefly, to a 1.5 mL Eppendorf tube containing 50 μl of plasma, 200 μl of ice-cold acetonitrile containing 1,000 ng/ml Progesterone (used as internal standard) was added in order to precipitate the proteins. The sample was vortexed, mixed and centrifuged at 4000×g for 10 min at 4° C. to remove precipitates. 140 μl supernatant was collected and transferred to a 500 μl 96-well polypropylene plate and covered using silicone plate mat. 40 μl of sample was injected in into LC-MS. Using the same sample preparation procedure 11 standard solutions ranging from 50 ng/mL to 100 μg/mL were prepared, analyzed by LC-MS and used as a calibration curve to correlate peak area of the samples to concentration. Drug quantification in brain: the mouse brain was weighted and 1 mL of water per 400 mg of tissue was added. The sample was homogenized using an electric tissue homogenizer. To a 1.5 mL Eppendorf tube containing 50 μl of homogenized sample, 200 μl of ice-cold acetonitrile containing 1000 ng/ml Demeclocycline (used as internal standard) was added in order to precipitate the proteins. The sample was vortexed, mixed and centrifuged at 4000×g for 10 min at 4° C. to remove precipitates. 140 μl supernatant was collected and transferred to a 500 μl 96-well polypropylene plate and covered using silicone plate mat. 40 μl of each sample was injected into LC-MS. Using the same sample preparation procedure 11 standard solutions ranging from 50 ng/mL to 100 μg/mL were prepared, analyzed by LC-MS and used as a calibration curve to correlate peak area of the samples to concentration.
as §2

In the next series the test system is K^+ channels. The settings on record: cited from earlier work.

Where two headings read alike, the source gives them in different places.

Regarding `Nc1ccncc1` [4-AP, 4-aminopyridine, reference compound], the “Pe: permeability coefficient across artificial membrane” value in series [1] amounted to 2.36 ± 0.03 nm/s. Moreover, the “increase in CAP amplitude” value in series [2] is recorded as “around 5%”; in series [3] (hypomyelinated nerves), 2-4 fold. Besides, in series [3] (Mus musculus, hypomyelinated Shiverer optic nerve, 22 °C, Hill fit, read-out: half-maximal effective concentration (EC50) in enhancing the CAP), the EC50 stood at 59.2 µM. Also, the “brain localization by autoradiography” value in series [4] is reported as “localizes to demyelinated areas but not myelinated areas”. Besides, the Effect entry in the series with C57Bl/6J mice (30 μmol/kg) was “Mild tremor, mouse quiet”; in the series with C57Bl/6J mice (60 μmol/kg), “Severe tremor, mild jerks, salivation”; in the series on C57Bl/6J mice (90 μmol/kg), “Severe tremors and seizures that start”. Moreover, the “duration of tremors and seizures” value in the series on C57Bl/6J mice (90 μmol/kg) is reported as approximately 2 h. Also, in the series on C57Bl/6J mice (90 μmol/kg (highest dose)), the “start of tremors and seizures post-injection” value is 10 min. For the same compound, the Kp in series [5] (brain and plasma, read-out: Cbrain/Cplasma (maximum in the brain over maximum in plasma)) is 0.1 ± 0.05. For the same compound, the half-life is 1.9 h in series [5] (brain, read-out: half-life in brain (converted)) and 0.33 h in series [5] (plasma, read-out: half-life in plasma (converted)). Moreover, in the series with K^+ channels (in vitro), the in vitro affinity is approximately 250 µM. The “concentration active in vivo” value in the series on K^+ channels (in vivo) was approximately 0.5 µM.

The record behind these values is patent publication US10442767B2 (priority 2012, dated 2019).
